# Measured values as given in patent US20180045715A1, “STRUCTURE AND FUNCTION OF THE SALICYCLIC ACID BINDING SITES ON HUMAN HMGB1 AND METHODS OF USE THEREOF FOR THE RATIONAL DESIGN OF BOTH SALICYCLIC ACID DERIVATIVES AND OTHER AGENTS THAT ALTER ANIMAL AND PLANT HMGBS ACTIVITIES” (Boyce Thompson Institute for Plant Research, Inc., priority 2015, published 2018).
# Positions count from the first letter of the chain named. pIC50: −log10 of the molar value.
# Assays:
# full-length HMGB1 = biological target: T1, full-length HMGB1 (Homo sapiens, UniProt P09429); experiment: WaterLOGSY NMR with HMGB1; format: binding; conditions: 6 mM SA or 5 mM ac3AESA, 20 μM protein
# T1 construct: (i) full length: residues 2-215; hexaHis (TEV-cleavable) (N, cleaved yes); made in house
# T1 sequence (P09429 2-215): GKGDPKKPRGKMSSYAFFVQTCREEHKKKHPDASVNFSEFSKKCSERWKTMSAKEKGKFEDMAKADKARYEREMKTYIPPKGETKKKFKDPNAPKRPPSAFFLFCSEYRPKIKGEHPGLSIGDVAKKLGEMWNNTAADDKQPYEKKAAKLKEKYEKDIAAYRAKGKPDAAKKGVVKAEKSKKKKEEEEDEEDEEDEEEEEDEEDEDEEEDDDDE
# From the text: NMR can be used to detect protein ligand interactions either by protein-detected experiments (Lepre, Moore et al. 2004), detecting changes in the frequencies of resonances of the protein sample due to ligand binding (protein-detected chemical shift perturbation (CSP) experiments), or by ligand-detected experiments (Lepre, Moore et al. 2004), in which NMR properties of the ligands due to ligand-protein interactions are detected. Protein-detected ligand binding experiments are usually done using isotope-enriched protein samples which can be studied by isotope-filtered NMR experiments, including for example ^15N-^1H-HSQC (Kay, Keifer et al. 1992). Ligand-detected experiments include the Waterlogsy experiment (Meyer and Peters 2003, Lepre, Moore et al. 2004, Furihata, Shimotakahara et al. 2008), which detects interactions in the ternary complex formed by the protein, the ligand, and one or more water molecules, and the Saturation Transfer Difference (STD) NMR experiments (Mayer and Meyer 2001, Lepre, Moore et al. 2004, Wang, Liu et al. 2004), which detects magnetization transfer from the protein to the ligand in the protein-ligand complex. The Waterlogsy experiment is a more sensitive experiment, typically employed to detect qualitatively if there is an interaction between protein and ligand. […]
# Pep1 = experiment: Callose staining: Pep1-induced callose deposition in Arabidopsis leaves; format: in vivo, Arabidopsis thaliana; conditions: 100 nM Pep1, 15 h
# Experimental: Arabidopsis leaves were collected 15 h after infiltration with 100 nM AtHMGB3 or 100 nM Pep1, and then immediately immersed in alcoholic lactophenol (phenol:glycerol:lactic acid:water:ethanol=1:1:1:1:8) to destain the chlorophyll. To remove the background fluorescence, destained leaves were treated with toluidine blue O solution (0.05% toluidine blue O, 0.1 M sodium acetate, pH 4.4) for 30 min, and then rinsed twice with 150 mM K2HPO4 (pH 9.5). Callose was stained with aniline blue solution (0.02% aniline blue, 150 mM K2HPO4, pH 9.5) for 30 min in the absence of light. The aniline blue-stained leaves were mounted with 25% glycerol and analyzed using a Leica DM5500 epifluorescence microscope. The number of callose loci was quantified using an ImageJ (NIH).
# [1] = biological target: T2, full-length (FL) R24A/K28A HMGB1 (Homo sapiens, UniProt P09429, K28A/R24A); experiment: 15N-1H HSQC NMR binding to R24A/K28A HMGB1; conditions: ~0.1 mM protein; 15 mM SA, 3 mM ac3AESA or 3 mM amorfrutin B1
# T2 construct: (i) full length: residues 2-215; made in house
# T2 sequence (P09429 2-215 R24A/K28A): T1 sequence (P09429 2-215) with R23A, K27A
# Experimental: […] Samples were analyzed with and without SA or other candidate inhibitors at 25° C. Chemical shift perturbation studies were carried out using either a Bruker Avance 800 MHz Avance NMR system with 4-mm NMR tubes, or using a Bruker Avance 600 MHz NMR spectrometer equipped with a 1.7 mm micro cryoprobe. 1024 or 2048 complex points were acquired for each of 80 to 200 increments in the ^15N dimension with a recycle delay of 1 s. Each spectrum was typically acquired for 2-8 hrs. Chemical shift assignments were determined using a uniformly ^13C,^15N-enriched HMGB1-ΔC construct at 25° C. via traditional triple-resonance NMR experiments (Biamonti et al., 1994; Moseley et al., 2001) recorded on a Bruker 800 MHz NMR spectrometer equipped with a 5 mm cryoprobe. Disulfide oxidation studies were carried out using the ^15N-^1H SOFAST-HMQC NMR experiment (Schanda & Brutscher, 2005; Schanda et al., 2005; Zandarashvili et al., 2013).
# An alternative explanation is that SA, at low concentrations, affects another factor in vivo, which results indirectly in suppression of HMGB1^RE-induced chemotaxis. […] Therefore, these residues were mutated to Ala to form the double mutant Arg24Ala/Lys28Ala (R24A/K28A).
# [2] = tested on: fMLP-induced migration of NIH/3T3 fibroblast cells; experiment: Chemotaxis assay: fMLP-induced fibroblast migration (specificity control); format: cell-based, mouse; conditions: 0.1 nM fMLP
# Experimental: Cell migration was assayed using Boyden chambers (Venereau et al., 2012). The downside of PVP-free polycarbonate filters (8 μm pores; Millipore) was coated with 50 μg/ml fibronectin (Sigma). Serum-free DMEM (negative control), DMEM containing 0.1 nM fMLP (positive control; Sigma), or DMEM containing 1 nM HMGB1^RE or HMGB1^SS were placed in the lower chamber, together with different concentrations of SA (Sigma). The mouse 3T3 fibroblast cells were cultured in DMEM media supplemented with 10% CS until 90% confluence, washed twice with PBS to eliminate any floating cells, and harvested with trypsin. 50,000 cells in 200 μL were added to the upper chamber, and cells were left to migrate for 3 h at 37° C. Non-migrating cells were removed with a cotton swab, and migrated cells were fixed with ethanol and stained with Giemsa.
# HMGB1^RE acts as a chemo-attractant that mediates migration of several cell types, including monocytes, fibroblasts, mesoangioblasts, smooth muscle cells, and colon cancer cells (Venereau et al., 2012). To determine whether SA alters HMGB 1's chemo-attractant activity, a chemotaxis assay was performed with mouse 3T3 fibroblasts.
# COX = conditions: cited from earlier work
smiles,measurement,setting,value
"O=C(O)c1ccccc1O [SA, salicylic acid]",WaterLOGSY binding to HMGB1,full-length HMGB1,binds
same,effect on Pep1-induced callose deposition,Pep1,unaffected
same,binding to R24A/K28A HMGB1 (CSPs in HSQC),[1],does not bind
same,effect on fibroblast migration induced by fMLP,[2],did not affect
same,"IC50, inhibition of COX activity in vitro","COX; literature (Mitchell et al., 1997; Vane, 1971)",> 100 mg/L
same,pIC50,"COX; literature, conversion in parentheses, read-out: IC50, inhibition of COX activity in vitro",< 3.30
